These results are taken from EP4650362A1, “NEUROPROTECTIVE PSD-95 POLYPEPTIDE INHIBITOR AND USE THEREOF” (Beijing Tuo Jie Biopharmaceutical Co. Ltd., priority 2023, dated 2024).

Like-named read-outs stand apart in the source and are kept apart here. Non-standard residues stand in square brackets, D forms with d. Residues, ends and D or L forms follow the SMILES beside them. Chg = N[C@H](C(=O)O)C1CCCCC1; Tle = CC(C)(C)[C@H](N)C(=O)O; Dab = NCC[C@H](N)C(=O)O; Aib = CC(C)(N)C(=O)O

Data set [1] deals with T1, human PSD95-PDZ2 (Homo sapiens, UniProt P78352).
T1 construct: PDZ2 (155-249, the Flag-His-Avitag-TEVsite tag is italicized); made in house; host or cells: E. coli BL21-DE3 (PET vector)
Description: competitive ELISA, affinity for human PSD95-PDZ2. The format is binding. Conditions: for IC50: competitive ELISA against 0.3 µM Biotin-NA-1, error of this test within three times, read-out: IC50. An excerpt: The objective of this test example was to determine the affinities of polypeptide compounds for human PSD95-PDZ2 using competitive ELISAs.
The amino acid sequence of PDZ2 protein was designed using human PSD95 (Uniprot Entry: P78352) as a template for PDZ: PDZ2 (155-249, the Flag-His-Avitag-TEVsite tag is italicized and was subsequently used for purification and biotinylation): […]
[…] (SEQ ID NO. 62). The PDZ2 gene was constructed onto a PET expression vector, and induced expression was performed using BL21-DE3 E. coli cells under conditions of 37 °C and 1 mM IPTG 4 h. Then centrifugation was performed at 10,000 g at 4 °C for 10 min, and the cell pellets were collected, resuspended in 1× PBS solution, and then lysed using a homogenizer. The lysate was centrifuged at high speed, and the supernatant was collected and filtered through a 0.45 µm membrane. A Ni-Sepharose affinity column was equilibrated with 5 column volumes of a 20 mM phosphate buffer (pH 8.0). The sample was centrifuged at high speed to remove impurities and loaded onto the column for binding. The column was rinsed with the 20 mM phosphate buffer until the A280 reading dropped to the baseline. Gradient elution was then performed with the 20 mM phosphate buffer and 0-500 mM imidazole. A protein was collected, and whether it was the target protein was determined. The purified sample described above was buffer-exchanged into 1× PBS solution, and the resulting solution was concentrated to a volume of 2 mL and further purified using a Superdex200 gel chromatography column (GE) equilibrated with 1× PBS. The target peak was collected and aliquoted for later use.
PSD95-PDZ2 (the tag was removed by TEV enzyme) was diluted with 1× PBS buffer to 1 µg/mL, added to a 96-well microplate (Corning, 9018, 25/box 96-well clear flat bottom plate) at 100 µL/well, and left to stand overnight at 4 °C for 16-20 h. After the liquid was discarded, the plate was washed three times with PBST (pH 7.4, 0.05% Tween-20) buffer, and a 4% BSA blocking solution diluted with PBST buffer was then added (300 µL/well). The plate was blocked by incubation in an incubator at 37 °C for 1 h. After the blocking was complete, the blocking solution was discarded, and the plate was washed three times with PBST buffer. Biotin-NA-1, at a constant concentration of 0.3 µM, and the test compounds, having a starting concentration of 100 µM and serially diluted ten-fold with PBS buffer to seven concentrations (100, 10, 1, 0.1, 0.01, 0.001, 0.0001, and 0 µM), were then added, and the plate was incubated in an incubator at 37 °C for 1 h. After the incubation was complete, the reaction solutions in the microplate were discarded, and the plate was washed three times with PBST. 100 µL of HRP-SA secondary antibody (diluted at 1:2000) was added to each well, and the plate was incubated at 37 °C for 1 h. After the plate was washed three times with PBST, 100 µL of TMB chromogenic substrate was added. The plate was incubated at room temperature for 1-3 min, and 100 µL of 1 M sulfuric acid was added to stop the reaction.
The absorbance at 450 nm was measured using a SpectraMax M5 microplate reader, and non-linear fitting was performed using GraphPad Prism 9 to calculate the binding IC50 values of the test compounds to PSD95-PDZ2 protein.
In general terms: ELISA stands for enzyme-linked immunosorbent assay.

The target of data set [2] is T1, human PSD95-PDZ2. The experiment in a line: binding ELISA with Biotin-PDZ2. Conditions: for EC50: plate coated with 2 µM test compound, Biotin-PDZ2 titrated, read-out: EC50 (PDZ2). From the text:
(§1) The three PDZ domains in the PSD95 protein are structurally similar. Binding to the PDZ1 and PDZ2 domains can effectively block PSD95-mediated neuroexcitotoxicity. However, the biological function of binding to the PDZ3 domain is unclear. Therefore, to avoid potential safety concerns, this test example assessed the selectivity of polypeptide compounds for the PDZ2 and PDZ3 domains, aiming to identify polypeptide compounds that specifically bind to the PDZ2 domain. Site-specifically biotinylated Biotin-PDZ2 and Biotin-PDZ3 proteins were used for binding ELISA assays. […] After the blocking was complete, the blocking solution was discarded, and the plate was washed three times with PBST buffer. […] After the incubation was complete, the reaction solutions in the microplate were discarded, and the plate was washed three times with PBST. 100 µL of HRP-SA secondary antibody (diluted at 1:2000) was added to each well, and the plate was incubated at 37 °C for 1 h. After the plate was washed three times with PBST, 100 µL of TMB chromogenic substrate was added. […] The absorbance at 450 nm was measured using a SpectraMax M5 microplate reader, and the binding EC50 values of the test compounds to Biotin-PDZ2 or Biotin-PDZ3 were calculated using GraphPad Prism 9. […] The abilities of polypeptide compounds to bind to human PSD95-PDZ2 and human PSD95-PDZ3
Target sequence in this assay (P78352 155-249): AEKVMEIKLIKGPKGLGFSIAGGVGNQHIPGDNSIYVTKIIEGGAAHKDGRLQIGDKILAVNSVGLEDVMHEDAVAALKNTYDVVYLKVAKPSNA

The next data set addresses T2, human PSD95-PDZ3 (Homo sapiens, UniProt P78352).
T2 construct: PDZ3 (309-401, Flag-His-Avitag-TEVsite tag); made in house
Description: binding ELISA with Biotin-PDZ3. The note with it: plate coated with 2 µM test compound, Biotin-PDZ3 titrated; read-out: EC50 (PDZ3).
From the text: as §1, with “domain. The expression and purification of PSD95-PDZ3 protein were carried out with reference to the steps in 3.1.2. The amino acid sequence of PDZ3 protein: […]” for “domain.”, “μL” for “µL”

Data set [3] in a line: pharmacokinetic study in rats, single intravenous bolus injection. Conditions: rats, intravenous bolus injection over 10 min, 3 nmol/g, n = 3. The format is in vivo, SD rats. The protocol:
With male SD rats as test animals, the pharmacokinetic behavior of polypeptide compounds administered via single intravenous bolus injection in rats (plasma) was studied.
Male SD rats weighing 170 to 200 grams and aged 4-6 weeks were purchased from Beijing Vital River Laboratory Animal Technology Co., Ltd. The polypeptide compounds were dissolved in 1× PBS, and the polypeptide compound solutions were then administered via intravenous bolus injection over 10 min at a dose of 3 nmol/g, with three animals per group. At each of the time points of 2 min, 8 min, 15 min, 30 min, 45 min, 60 min, and 120 min after the end of bolus injection, 0.2 mL of blood was collected and transferred to an EDTA-K2 anticoagulation centrifuge tube. The whole blood sample was centrifuged at 4 °C at 4000 g for 5 min, and a plasma sample was obtained by separation and cryopreserved at -80 °C.
The pharmacokinetic parameters of polypeptide compound 22, administered via intravenous bolus injection, in rats were determined using a similar method, with the difference being that an enzyme inhibitor was added immediately after blood collection.
The plasma concentrations of the test compounds were determined using the method in Test Example 3.4.3. Plasma concentration-time curves were plotted, and the pharmacokinetic parameters were calculated using PKSolver software. The experimental results are shown in Table 5-1, Table 5-2, and FIG. 3.

T2 sequence (P78352 309-401): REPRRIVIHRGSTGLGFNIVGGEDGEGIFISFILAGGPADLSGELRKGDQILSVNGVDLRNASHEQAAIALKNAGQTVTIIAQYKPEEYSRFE

For the molecule `CC(C)[C@H](NC(=O)[C@H](CC(=O)O)NC(=O)[C@H](CO)NC(=O)[C@@H](NC(=O)[C@@H](NC(=O)[C@@H](NC(=O)[C@H](CCN)NC(=O)C(C)(C)NC(=O)CNC(=O)[C@@H](CCCNC(=N)N)NC(=O)[C@@H](CCCNC(=N)N)NC(=O)[C@@H](CCCNC(=N)N)NC(=O)[C@@H](CCC(N)=O)NC(=O)[C@@H](CCCNC(=N)N)NC(=O)[C@@H](CCCNC(=N)N)NC(=O)[C@@H](CCCCN)NC(=O)[C@@H](CCCCN)NC(=O)[C@@H](CCCNC(=N)N)NC(=O)CNC(=O)[C@H](N)Cc1ccc(O)cc1)[C@@H](C)O)C1CCCCC1)C(C)(C)C)C(=O)O` [Polypeptide compound 19, y-G-r-k-k-r-r-q-r-r-r-G-Aib-Dab-T-Chg-Tle-S-D-V] (H-[dY]G[dR][dK][dK][dR][dR][dQ][dR][dR][dR]G[Aib][Dab]T[Chg][Tle]SDV-OH), on human PSD95-PDZ2 [1], the IC50 came out at 612 nM. The EC50 on human PSD95-PDZ2 [2] was found to be 29 nM. For the same molecule, the EC50 at human PSD95-PDZ3 is above 1 mM. Further, in data set [3] (male, SD, rat, plasma), the AUC(0-inf) came to 11800 ng·h/mL and the MRT is 57.6 min. Moreover, the AUC(0-t) in data set [3] (male, SD, rat, plasma, read-out: AUC(0-t)) stood at 10200 ng·h/mL. For the same molecule, in data set [3] (male, SD, rat, plasma, read-out: Cmax), the Cmax came to 19600 ng/mL. The half-life in data set [3] (male, SD, rat, plasma, read-out: T1/2 (converted)) is 43.8 min. In data set [3], this molecule displayed an AUClast/dose of 1345.

On to `CC(C)[C@H](NC(=O)[C@H](CC(=O)O)NC(=O)[C@H](CO)NC(=O)[C@@H](NC(=O)[C@@H](NC(=O)[C@@H](NC(=O)CNC(=O)[C@@H](CCCNC(=N)N)NC(=O)[C@@H](CCCNC(=N)N)NC(=O)[C@@H](CCCNC(=N)N)NC(=O)[C@@H](CCC(N)=O)NC(=O)[C@@H](CCCNC(=N)N)NC(=O)[C@@H](CCCNC(=N)N)NC(=O)[C@@H](CCCCN)NC(=O)[C@@H](CCCCN)NC(=O)[C@@H](CCCNC(=N)N)NC(=O)CNC(=O)[C@H](N)Cc1ccc(O)cc1)[C@@H](C)O)C1CCCCC1)C(C)(C)C)C(=O)O` [Polypeptide compound 21, y-G-r-k-k-r-r-q-r-r-r-G-T-Chg-Tle-S-D-V] (H-[dY]G[dR][dK][dK][dR][dR][dQ][dR][dR][dR]GT[Chg][Tle]SDV-OH), for which, at human PSD95-PDZ2 [1], the IC50 is 800 nM. Also, the rIC50 on human PSD95-PDZ2 [1] (ratio of the affinity of the polypeptide compound to the affinity of NA-1) was determined as 0.88. The “selectivity for the PSD95-PDZ2 domain” value on human PSD95-PDZ2 [2] (PDZ2 versus PDZ3, conclusion in words) is “comparable to that of the positive drugs NA-1 and NoNO42”. For the same molecule, the EC50 at human PSD95-PDZ2 [2] was 18 nM. Further, the “Specificity for PDZ2 (PDZ3/PDZ2)” value on human PSD95-PDZ2 [2] (ratio PDZ3/PDZ2) was above 10000. For the same molecule, the EC50 at human PSD95-PDZ3 is above 1 mM. For the same molecule, in data set [3], the “AUC(0-t)” value amounted to 5660 ng·h/mL, the “AUC(inf)” value was determined as 6396 ng·h/mL, the AUClast/dose is 745 and the Cmax worked out at 15643 ng/mL. Also, in data set [3], the MRTO-inf was 48 min and the T1/2 is 43.2 min.

Usually IC50 stands for the midpoint of a concentration-inhibition curve. As usually defined, the EC50 is the concentration giving half of the maximal effect. Usually AUC(0-inf) stands for total exposure, with the tail of the curve extrapolated. A higher AUC(0-inf) goes with more exposure. The MRT is the average time that molecules of a dose stay in the body. The AUC(0-t) is the area under the concentration-time curve up to a stated or last time point. By Cmax is commonly meant the maximum level reached in the sampled fluid or tissue.
